Measured values taken from PMC5731860, “Novel allylated monocarbonyl analogs of curcumin induce mitotic arrest and apoptosis by reactive oxygen species-mediated endoplasmic reticulum stress and inhibition of STAT3” (Oncotarget, 2017).

Columns and labels:
BGC-823 = experiment: MTT assay, growth inhibition / cell viability; type: cell-based; conditions: Homo sapiens; for inhibition at 20 µM: BGC-823, 20 μM, 24 h
Method: (§1) First, we investigated whether allylated MAC alter the viability or have cytotoxic effects on cells in culture. We have performed MTT tetrazolium reduction assay following exposure of cancer cells (gastric cancer, BGC823 and SGC-7901; colon cancer, HT-29, HCT-116 and SW-480) and normal gastric epithelial cells (GES-1) to all 20 allylated MAC at a concentration of 20 μM for 24 h. […] In addition, we also found notable solubility and stability profile of these compounds (Supplementary Figure 1).
(§2) Cells were plated at a density of 8 × 10^3 cells/well in 96-well plates and allowed to attach overnight. Stock solutions of allylated MAC and curcumin were prepared in DMSO and diluted in culture media to obtain appropriate concentration. Cells were treated for 24 h and 48 h, following which, 20 μL of 5 mg/ml MTT reagent was added. Purple formazan product was dissolved by the addition of 100 μL DMSO to each well. Absorbance was then monitored at 490 nm using a plate reader (Molecular Device Spectra MAX190, USA). Percentage of cytotoxicity was determined using the following formula: Growth inhibition (%) = (OD of control−OD of test/OD of control×100%).

SGC-7901 = experiment: MTT assay, growth inhibition / cell viability; type: cell-based; conditions: Homo sapiens; for inhibition at 20 µM: 24 h
Method: as §1, §2

HT-29 = experiment: MTT assay, growth inhibition; type: cell-based; conditions: Homo sapiens, HT-29, 24 h
Method: as §1, §2

GES-1 = experiment: MTT assay, growth inhibition in normal gastric epithelial cells; type: cell-based, human; conditions: for inhibition of the normal epithelial cells (selective cytotoxicity in cancer cell lines), in words: 20 μM, 24 h; for inhibition at 20 µM: Homo sapiens, GES1, 24 h, normal gastric epithelial cells
Method: as §1, §2

SW-480 = experiment: MTT assay, growth inhibition; type: cell-based, human; conditions: for inhibition at 20 µM: Homo sapiens, SW480, 24 h; for % Of growth inhibition SW-480: 20 μM, 24 h
Method: as §1, §2

HCT-116 = experiment: MTT assay, growth inhibition; type: cell-based, human; conditions: for % Of growth inhibition HCT-116: 20 μM, 24 h; for inhibition at 20 µM: Homo sapiens, HCT-116, 24 h
Method: as §1, §2

[1] = Body weight of xenograft mice; type: in vivo; conditions: 0–12 days, ip once a day; CA10 10 and 20 mg/kg, curcumin 50 mg/kg
Excerpt: (§3) All animal experiments complied with the Wenzhou Medical University's Policy on the Care and Use of Laboratory Animals. Protocols for animal studies were approved by the Wenzhou Medical University Animal Policy and Welfare Committee (Approved documents: 2016/201). Athymic BALB/c nu/nu female mice weighing 20–22 g (6 weeks old) were purchased from Vital River Laboratories (Beijing, China). Animals were housed (6 animals/gage) at a constant room temperature with a 12/12-hr light/dark cycle and fed a standard rodent diet and water ad libitum. SGC-7901 cells were injected subcutaneously into the right flank of each mice at 1 × 10^6 cells in 0.1 mL PBS. Once tumors reached a volume of 100–200 mm^3, mice were randomly divided into 4 groups. These groups included mice treated with 10 mg/kg CA10, mice treated with 20 mg/kg CA10, mice treated 50 mg/kg curcumin, and control mice receiving vehicle alone. All treatments were carried out with intraperitoneal injections. The body weight and tumor volumes were monitored and determined by measuring length (l) and width (w) and calculated as tumor volume (V = 0.5 × l × w2) at the indicated time points. At the end of treatment period, mice were sacrificed and the tumors were removed and weighed for histological analyses and proteins measurement studies.

[2] = tested on: SGC-7901 xenograft tumors; experiment: In vivo mouse xenograft model, tumor growth; design: species or system mice; conditions: ip once a day for 12 days, CA10 10 and 20 mg/kg, curcumin 50 mg/kg
Excerpt: as §3

| IC50 (BGC-823; BGC-823, 24 h) | IC50 (BGC-823; BGC-823, 48 h) | IC50 (SGC-7901; SGC-7901, 24 h) | IC50 (SGC-7901; SGC-7901, 48 h) | Compound | inhibition at 20 µM (BGC-823) | inhibition at 20 µM (SGC-7901; SGC-7901, 24 h) | inhibition at 20 µM (HT-29) | inhibition of the normal epithelial cells (selective cytotoxicity in cancer cell lines), in words (GES-1) | inhibition at 20 µM (GES-1) | inhibition at 20 µM (SW-480) | % Of growth inhibition HCT-116 (HCT-116) | inhibition at 20 µM (HCT-116) | % Of growth inhibition SW-480 (SW-480) | body weight of mice [1] | tumor weight and volume [2] |
| --- | --- | --- | --- | --- | --- | --- | --- | --- | --- | --- | --- | --- | --- | --- | --- |
|  |  |  |  | C=CCc1cc(/C=C2\CN(CC)C/C(=C\c3ccc(O)c(CC=C)c3)C2=O)ccc1O [CA1] | 60.4 ± 0.62% | 66.1 ± 8.88% | < 60% | minimal inhibition | 22.8 ± 3.04% | 71.3 ± 3.35% | 50.22 ± 7.62% | 55% |  |  |  |
|  |  |  |  | C=CCc1cc(/C=C2\CN(CCC)C/C(=C\c3ccc(O)c(CC=C)c3)C2=O)ccc1O [CA2] | 63 ± 8.7% | 79.8 ± 0.9% | 67 ± 6.79% |  | 60.88 ± 0.41% | 76 ± 6.31% |  | 60.6 ± 0.98% |  |  |  |
|  |  |  |  | C=CCc1cc(/C=C2\CN(C3CC3)C/C(=C\c3ccc(O)c(CC=C)c3)C2=O)ccc1O [CA4] | 67.06 ± 0.4% | 77.8 ± 1.98% | 74.3 ± 0.79% |  | 63.4 ± 2.67% | 81 ± 5.36% | 44.18 ± 6.18% | 55% |  |  |  |
|  |  |  |  | C=CCc1cc(/C=C2\CN(S(=O)(=O)c3ccccc3)C/C(=C\c3ccc(O)c(CC=C)c3)C2=O)ccc1O [CA5] | 63.3 ± 5.52% | > 80% | 71.2 ± 1.99% |  | 63.8 ± 2.33% | 77.1 ± 3.79% | 43.04 ± 4.24% | 55% |  |  |  |
|  |  |  |  | C=CCc1cc(/C=C2\CN(Cc3ccccc3)C/C(=C\c3ccc(O)c(CC=C)c3)C2=O)ccc1O [CA6] | 65.83 ± 0.52% | > 80% | 79.7 ± 3.11% | minimal inhibition | 22.6 ± 6.08% | 79.1 ± 4.2% | 72.58 ± 2.72% | 70% |  |  |  |
|  |  |  |  | C=CCc1cc(/C=C2\CCC/C(=C\c3ccc(O)c(CC=C)c3)C2=O)ccc1O [CA7] | 71.2 ± 3.07% | > 80% | 79.5 ± 4.1% |  | > 60% | 71.7 ± 1.15% |  | 67 ± 4.92% |  |  |  |
|  |  |  |  | C=CCc1cc(/C=C2\COC/C(=C\c3ccc(O)c(CC=C)c3)C2=O)ccc1O [CA8] | 71.2 ± 1.07% | > 80% | 71.1 ± 2.6% |  | 27 ± 3.4% | 79.3 ± 4.37% | 38.83 ± 4.23% | 55% |  |  |  |
|  |  |  |  | C=CCc1cc(/C=C2\CSC/C(=C\c3ccc(O)c(CC=C)c3)C2=O)ccc1O [CA9] | 69.3 ± 3.13% | > 80% | 75.7 ± 2.18% |  | > 60% | 78 ± 5.69% |  | 67.3 ± 5.03% |  |  |  |
|  |  |  |  | C=CCc1cc(/C=C2\CN(C3CC3)C/C(=C\c3ccc(N4CCN(C)CC4)cc3)C2=O)ccc1O [CA11] | 61.33 ± 0.48% | 61 ± 4.97% | 63.3 ± 1.31% |  | 45.56 ± 0.39% | 49.5 ± 6.47% | 52.05 ± 1.91% | 55% |  |  |  |
|  |  |  |  | C=CCc1cc(/C=C2\CN(C3CC3)C/C(=C\c3ccc(N4CCOCC4)cc3)C2=O)ccc1O [CA12] | 40.1 ± 4.65% | 52.5 ± 5.54% | < 60% |  | 40 ± 3.29% | 33.8 ± 1.98% | 70.99 ± 3.12% | 70% |  |  |  |
|  |  |  |  | C=CCc1cc(/C=C2\CN(C3CC3)C/C(=C\c3ccc(N(CC)CC)cc3)C2=O)ccc1O [CA14] | 40.4 ± 5.7% | > 80% | < 60% |  | 47.9 ± 8.09% | 57 ± 3.57% | 52.10 ± 9.05% | 55% |  |  |  |
|  |  |  |  | C=CCc1cc(/C=C2\CN(C3CC3)C/C(=C\c3ccc(N(C)C)cc3)C2=O)ccc1O [CA15] | 50.6 ± 2.49% | 50.5 ± 4.3% | < 60% | minimal inhibition | 23.8 ± 4.79% | 36.3 ± 1.7% | 43.17 ± 8.26% | 55% |  |  |  |
|  |  |  |  | C=CCc1cc(/C=C2\CN(C3CC3)C/C(=C\c3cc(OC)c(OC)cc3OC)C2=O)ccc1O [CA16] | 60.7 ± 5.64% | 60 ± 7.35% | 68 ± 1.39% |  | 41.3 ± 5.22% | 33.8 to 57% |  | 60.1 ± 2.02% | 35.69 ± 5.91% |  |  |
|  |  |  |  | C=CCc1cc(/C=C2\CN(C3CC3)C/C(=C\c3ccc(OC)c(OC)c3)C2=O)ccc1O [CA17] | 37 ± 4.35% | 73.7 ± 1.26% | < 60% |  | 61.9 ± 1.41% | 64.7 ± 4.65% |  | 78.1 ± 64% |  |  |  |
|  |  |  |  | C=CCc1cc(/C=C2\CN(C3CC3)C/C(=C\c3c(OC)cc(OC)cc3OC)C2=O)ccc1O [CA18] | 57.96 ± 0.01% | 61.3 ± 4.02% | 63 ± 4.2% |  | 57.8 ± 3.58% |  |  | 74.8 ± 1.25% | 56.88 ± 3.82% |  |  |
|  |  |  |  | C=CCc1cc(/C=C2\CN(C3CC3)C/C(=C\c3ccc(OC)cc3OC)C2=O)ccc1O [CA19] | 59.2 ± 3.67% | 76.6 ± 5.18% | 62.6 ± 7.39% |  | 62 ± 4.58% | 60.4 ± 3.1% |  | 78.1 ± 4.72% |  |  |  |
|  |  |  |  | C=CCc1cc(/C=C2\CN(C3CC3)C/C(=C\c3ccc(OC(C)(C)C)cc3)C2=O)ccc1O [CA20] | 56.8 ± 0.81% | > 80% | 71.16 ± 0.6% | minimal inhibition | 25.8 ± 1.86% | 61.5 ± 6.1% | 73.62 ± 4.23% | 70% |  |  |  |
| 54.4 ± 3.92 µM | 38.2 ± 1.02 µM | 62.2 ± 2.08 µM | 36.9 ± 3.17 µM | COc1cc(/C=C/C(=O)CC(=O)/C=C/c2ccc(O)c(OC)c2)ccc1O [curcumin] |  |  |  |  |  |  |  |  |  | no change | significant reduction |
